Data on two molecules can be found in patent publication US10752626B2, “Iso-citrate dehydrogenase (IDH) inhibitor” (SHANGHAI METON PHARMACEUTICAL CO., LTD, priority 2016, dated 2020).

The assay addresses IDH1 R132C (Homo sapiens (Human), UniProt O75874, R132C). In words: Improved cell-based assay: D-2-HG in HT1080 cells over-expressing D-2-HG dehydrogenase. To be noted: 12 h. The text has this: The present disclosure also provides a cell based method for assaying IDH inhibition and selectivity of the compounds in human fibrosacoma cell line HT1080 and cholangiocarcinoma cell line HCCC 9810, which harbor endogenous heterozygous IDH1 R132C and R132H mutation respectively and accumulate D-2-HG Tumor derived IDH mutant lost its normal activity of producing α-KG and gained a new activity of producing D-2-HG D-2-HG is a metabolite specifically elevated in IDH mutated tumor samples.
By treating HT1080 and HCCC 9810 cells with an effective IDH inhibitor, the synthesis of D-2-HG is blocked, and D-2-HG concentration is decreased by the oxidation reaction catalyzed by D-2-HG dehydrogenase.
To perform a cell based IDH inhibitor assay, HT1080 and HCCC 9810 cells (or other cell lines harboring different IDH mutations) are cultured in DMEM supplemented with 10% FBS. The cells are treated with compounds of present disclosure at various different concentration. At various time points (between 4-24 hours) after the treatment, cell culture supernatants were removed and cells were washed with PBS for one or two times. Cell metabolites are extracted by adding 80% methanol (pre-chilled under −80° C.) in the cells, extract at 4° C. temperature for 60 min, centrifuged to remove any insoluble component. Metabolites (clear supernatant from the previous step) are lyophilized and reconstituted in pyridine containing 20 mg/ml O-methoxyamineHCl and are incubated at 70° C. for 40 minutes. After cooling down to room temperature, MTBSTFA (N-tert-Butyldimethylsilyl-N-methyltrifluoroacetamide, Sigma Aldrich) is added at a volume ratio of 4:7 (e.g., 20 μL MTBSTFA to 35 μL 20 mg/ml O-methoxyamineHCl solution) and derivation is performed at 70° C. for 30 minutes. The derived metabolites including D-2-HG are analyzed by Agilent 7890A-5750 GC/MS system. […] of the derived metabolite is injected into Agilent 7890A-5750 for D-2-HG concentration analysis. GC oven temperature is programmed from 140° C. to 260° C. at 10° C./min, from 260° C. to 310° C. at 8° C./min and hold at 310° C. for 5 min. The flow rate of carrier gas is 1 ml/min. The mass spectrometer is operated in the electron impact (EI) mode at 70 eV D-2-HG is normalized to endogenous glutamate.
The activity of IDHs in the presence of each compounds at different concentrations can be represented by relative D-2-HG concentration to negative control samples, and the IC50 value, the inhibition and selectivity for each compound can be evaluated.
The present disclosure also provides an improved cell-based assay for IDH inhibition and selectivity of the compounds, which involves stably over-expressing D-2-HG dehydrogenase in HT1080 and HCCC 9810 cells.
According to previous report, over expression of D-2-HG dehydrogenase decreases the half-life of D-2-HG in HT1080 cells (FIGS. 2A and 2B) [“D-2-hydroxyglutarate is essential for maintaining oncogenic property of mutant IDH-containing cancer cells but dispensable for cell growth”, Ma, S., et al., Oncotarget, (2015)], making the cells more sensitive to D-2-HG synthesis blockage by mutant IDH1 inhibitors. It will greatly increase the sensitivity and accurateness of this cell based assay. In the improved cell-based assay, all other steps are performed as disclosed in Test 6.
The D-2-HG inhibition activity of compounds was also assessed in the improved cell-based assay according to the method disclosed in Test 7 of the Biological evaluation section. HT1080 cells over-expressing D-2-HG dehydrogenase were cultured in 35 mm plate and treated with each of Compounds 1-37 at a concentration of 0.5 μM, 1 μM, 2.5 μM and 5 μM for 12 h, respectively, and the D-2-HG concentration was analysed. The inhibition ratio of D-2-HG in HT1080 cell by the exemplary Compounds 16, 21-24 and 31 at different concentrations were shown in Table 10.

IDH1 R132C, sequence (O75874 2-414 R132C): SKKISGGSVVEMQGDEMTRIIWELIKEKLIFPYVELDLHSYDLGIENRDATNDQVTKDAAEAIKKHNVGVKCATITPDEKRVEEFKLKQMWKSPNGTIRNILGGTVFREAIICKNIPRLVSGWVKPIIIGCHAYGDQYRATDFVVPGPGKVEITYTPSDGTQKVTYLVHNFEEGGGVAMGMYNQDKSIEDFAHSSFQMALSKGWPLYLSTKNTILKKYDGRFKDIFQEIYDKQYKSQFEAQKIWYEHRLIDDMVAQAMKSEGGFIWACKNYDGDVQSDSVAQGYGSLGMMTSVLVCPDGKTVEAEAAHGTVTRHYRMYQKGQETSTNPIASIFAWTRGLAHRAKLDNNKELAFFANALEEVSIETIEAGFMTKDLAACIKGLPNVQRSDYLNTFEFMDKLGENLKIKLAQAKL

Turning to `CCN1Cc2c(ccnc2N[C@@H](C)c2ccc(Oc3ccc(C)cc3)cc2)C1=O` [Compound 16, (S)-2-ethyl-4-(1-(4-(p-tolyloxy)phenyl)ethylamino)-2,3-dihydro-1H-pyrrolo [3,4-c]pyridin-1-one], the “Inhibition ratio of D-2-HG in HT1080 cell” value runs as follows: (0.5 μM) 51%; (1 μM) 60.2%; (2.5 μM) 67%; (5 μM) 82.2%.

As to `CCN1Cc2c(ccnc2N[C@@H](C)c2ccc(Oc3ccccc3)c(F)c2)C1=O` [Compound 23, (S)-2-ethyl-4-((1-(3-fluoro-4-phenoxyphenyl)ethyl)amino)-2,3-dihydro-1H-pyrrolo[3,4-c]pyridin-1-one], the “Inhibition ratio of D-2-HG in HT1080 cell” value runs as follows: (0.5 μM) 12.5%; (1 μM) 30.7%; (2.5 μM) 68.3%; (5 μM) 76.7%.
